Data set [1] is described as follows: (§1) AUC in mouse plasma at 20 mg/kg, po. It is filed as ADME, organism-based. Also noted: dose 20 mg/kg, route oral. Particulars: plasma.
In another data set the test system is Mus musculus. Described as §1. The class given is ADME, organism-based. Also noted: dose 20 mg/kg, route oral. As to conditions: in vivo.

SMILES strings stand for the structures.

Consider six compounds from ChEMBL document CHEMBL1155377, “SAR of PXR transactivation in benzimidazole-based IGF-1R kinase inhibitors” (Bioorg Med Chem Lett, 2010).

Broadly, the AUC is concentration integrated over time. A low value points to low exposure.

In turn, `COC(=O)N1CCN(C2CCN(c3cc(C)c4nc(-c5c(NCCn6cc(Cl)cn6)cc[nH]c5=O)[nH]c4c3)CC2)CC1` gave an exposure (AUC) in data set [1] of 52 µM·h.

In turn, `Cc1cc(N2CCOCC2)cc2[nH]c(-c3c(NCCn4cc(Cl)cn4)cc[nH]c3=O)nc12` yielded an AUC in the data set with Mus musculus of 51 µM·h.

The compound `Cc1cc(N2CCOCC2)cc2[nH]c(-c3c(NC[C@@H](O)c4cccc(Cl)c4)cc[nH]c3=O)nc12` showed an AUC in the data set with Mus musculus of 8.2 µM·h.

Turning to `Cc1cc(N2CCOCC2)cc2[nH]c(-c3c(NCCc4ncn(C)c4Cl)cc[nH]c3=O)nc12`, the AUC in the data set with Mus musculus came to 90 µM·h.

In the case of `COC(=O)N1CCN(C2CCN(c3cc(C)c4nc(-c5c(NC[C@@H](O)c6cccc(Cl)c6)cc[nH]c5=O)[nH]c4c3)CC2)CC1`, the AUC in data set [1] was 11 µM·h.

In turn, `COC(=O)N1CCN(C2CCN(c3cc(C)c4nc(-c5c(NCCc6ncn(C)c6Cl)cc[nH]c5=O)[nH]c4c3)CC2)CC1` registered an AUC in data set [1] of 48 µM·h.
